Experimental data: patent US9670206B2, “Pyrido[4,3-B]pyrazine-2-carboxamides as neurogenic agents for the treatment of neurodegenerative disorders” (Hoffmann-La Roche Inc., priority 2013, dated 2017)

Tested on: human embryonic stem cell derived neural stem cells (NSCs)
Assay: Neural stem cell proliferation assay (neurogenesis assay, ATP levels by CellTiterGlo)
Assay type: cell-based
Settings: 96 h, compound concentration at which 150% activity of control (100%) is reached, NSC proliferation, ATP readout after 4 days incubation
Procedure: Neural Stem Cell Proliferation Assay
Neurogenic properties of small molecules are determined based on the proliferation of human embryonic stem cell derived neural stem cells (NSCs) which were derived via a dual smad inhibition as previously described (Chambers, S. M., et al., Highly efficient neural conversion of human ES and iPS cells by dual inhibition of SMAD signaling, Nature biotechnology, 2009. 27(3): p. 275-80.) Compounds respond is measured by the increase in cells based on ATP levels (Promega:CellTiterGlo®) after an incubation period of 4 days. NSCs are thawed and expanded over 3 passages. On the 14th day, NSCs are seeded in Polyornithin/Laminin coated 384 well plates at a cell density of 21,000 cells/cm^2 in a media volume of 38 μl. 4 hours after cell seeding, compound solutions are added at a volume of 2 μl. Stock solutions of the compounds (water, 5% DMSO) are diluted to obtain a dose response (11 points, dilution factor is 2), ranging from 8 μM to 8 nM. Controls are run to consistently determine the neurogenic properties of the cells: Negative (neutral) control is cell culture Media (final DMSO concentration: 0.25%). Positive controls are: • 1. cell culture Media+100 ng/ml FGF2 (final DMSO concentration: 0.1%) • 2. cell culture Media+20 ng/ml EGF (final DMSO concentration: 0.1%) • 3. cell culture Media+100 ng/ml Wnt3a (final DMSO concentration: 0.1%) After 4 days incubation at 37° C., 5% CO2, the amount of ATP per well is quantified. The ATP concentration is proportional to the cell number. ATP is quantified by using the Promega CellTiterGlo® kit. The CellTiterGlo® reagents contain a cell lysis buffer, a thermo stable luciferase (UltraGlo™ recombinant luciferase), magnesium and luciferin. Luciferin reacts with ATP producing oxyluciferin, AMP and light. The luminescence signal is proportional to the ATP content. The value of negative (neutral) control is determined for each assay plate by taking the average of 16 negative control wells. The neurogenic compound response is calculated for each compound as (compound/Negative Control)*100. The values of EC150 from the dose response curve are determined for each test compound. The EC150 is the compound concentration at which 150% activity of control (100%) is reached.

SMILES | EC (150% of control)
CC(C)(C)NC(=O)c1cnc2cncc(-c3ccc(C(F)(F)F)cc3)c2n1 [Example 35, N-tert-Butyl-8-(4-(trifluoromethyl)phenyl)pyrido[4,3-b]pyrazine-2-carboxamide] | 0.32 µM
CC(NC(=O)c1cnc2cncc(-c3ccc(Cl)cc3Cl)c2n1)C(C)(C)O (stereo not shown) [Example 36, 8-(2,4-Dichlorophenyl)-N-(3-hydroxy-3-methylbutan-2-yl)pyrido[4,3-b]pyrazine-2-carboxamide] | 1.5 µM
CC(NC(=O)c1cnc2cncc(-c3ccccc3Cl)c2n1)C(C)(C)O (stereo not shown) [Example 37, 8-(2-Chlorophenyl)-N-(3-hydroxy-3-methylbutan-2-yl)pyrido[4,3-b]pyrazine-2-carboxamide] | 1.13 µM
O=C(c1cnc2cncc(-c3ccc(Cl)cc3F)c2n1)N1CCC(O)C1 (stereo not shown) [Example 38, (8-(4-Chloro-2-fluorophenyl)pyrido[4,3-b]pyrazin-2-yl)(3-hydroxypyrrolidin-1-yl)methanone] | 0.1 µM
O=C(c1cnc2cncc(-c3ccc(Cl)cc3Cl)c2n1)N1CCC(O)C1 (stereo not shown) [Example 39, (8-(2,4-Dichlorophenyl)pyrido[4,3-b]pyrazin-2-yl)(3-hydroxypyrrolidin-1-yl)methanone] | 0.11 µM
O=C(c1cnc2cncc(-c3cc(C(F)(F)F)ccc3F)c2n1)N1CCC(O)C1 (stereo not shown) [Example 40, (8-(2-Fluoro-5-(trifluoromethyl)phenyl)pyrido[4,3-b]pyrazin-2-yl)(3-hydroxypyrrolidin-1-yl)methanone] | 0.93 µM
O=C(c1cnc2cncc(-c3cccc(OC(F)(F)F)c3)c2n1)N1CCC(O)C1 (stereo not shown) [Example 41, (3-Hydroxypyrrolidin-1-yl)(8-(3-(trifluoromethoxy)phenyl)pyrido[4,3-b]pyrazin-2-yl)methanone] | 0.6 µM
NC(=O)c1cnc2cncc(N3CCC(F)(F)CC3)c2n1 [Example 42, 8-(4,4-Difluoropiperidin-1-yl)pyrido[4,3-b]pyrazine-2-carboxamide] | 0.09 µM
O=C(c1cnc2cncc(-c3ccc(Cl)nc3)c2n1)N1CCC(O)C1 (stereo not shown) [Example 43, (8-(6-Chloropyridin-3-yl)pyrido[4,3-b]pyrazin-2-yl)(3-hydroxypyrrolidin-1-yl)methanone] | 0.03 µM
O=C(c1cnc2cncc(-c3ccc(Cl)c(F)c3)c2n1)N1CCC(O)C1 (stereo not shown) [Example 44, (8-(4-Chloro-3-fluorophenyl)pyrido[4,3-b]pyrazin-2-yl)(3-hydroxypyrrolidin-1-yl)methanone] | 0.27 µM
O=C(c1cnc2cncc(-c3ccc(C(F)(F)F)cc3F)c2n1)N1CCC(O)C1 (stereo not shown) [Example 45, (8-(2-Fluoro-4-(trifluoromethyl)phenyl)pyrido[4,3-b]pyrazin-2-yl)(3-hydroxypyrrolidin-1-yl)methanone] | 1.48 µM
CC(NC(=O)c1cnc2cncc(-c3ccc(Cl)c(F)c3)c2n1)C(C)(C)O (stereo not shown) [Example 46, 8-(4-Chloro-3-fluorophenyl)-N-(3-hydroxy-3-methylbutan-2-yl)pyrido[4,3-b]pyrazine-2-carboxamide] | 0.29 µM
CC(NC(=O)c1cnc2cncc(-c3cc(F)c(F)c(F)c3)c2n1)C(C)(C)O (stereo not shown) [Example 47, N-(3-Hydroxy-3-methylbutan-2-yl)-8-(3,4,5-trifluorophenyl)pyrido[4,3-b]pyrazine-2-carboxamide] | 0.03 µM
O=C(c1cnc2cncc(-c3ccc(CO)cc3)c2n1)N1CCC(O)C1 (stereo not shown) [Example 48, (8-(4-(Hydroxymethyl)phenyl)pyrido[4,3-b]pyrazin-2-yl)(3-hydroxypyrrolidin-1-yl)methanone] | 0.67 µM
CC(NC(=O)c1cnc2cncc(-c3ccnn3C)c2n1)C(C)(C)O (stereo not shown) [Example 49, N-(3-Hydroxy-3-methylbutan-2-yl)-8-(1-methyl-1H-pyrazol-5-yl)pyrido[4,3-b]pyrazine-2-carboxamide] | 0.02 µM
Cn1nccc1-c1cncc2ncc(C(N)=O)nc12 [Example 50, 8-(1-Methyl-1H-pyrazol-5-yl)pyrido[4,3-b]pyrazine-2-carboxamide] | 0.02 µM
Cc1ccc(-c2cncc3ncc(C(=O)NC(C)C(C)(C)O)nc23)cn1 (stereo not shown) [Example 51, N-(3-Hydroxy-3-methylbutan-2-yl)-8-(6-methylpyridin-3-yl)pyrido[4,3-b]pyrazine-2-carboxamide] | 0.08 µM
O=C(c1cnc2cncc(-c3ccc(C(F)(F)F)c(F)c3)c2n1)N1CCC(O)C1 (stereo not shown) [Example 52, (8-(3-Fluoro-4-(trifluoromethyl)phenyl)pyrido[4,3-b]pyrazin-2-yl)(3-hydroxypyrrolidin-1-yl)methanone] | 0.07 µM
Cc1cccc(-c2cncc3ncc(C(=O)NC(C)C(C)(C)O)nc23)n1 (stereo not shown) [Example 53, N-(3-Hydroxy-3-methylbutan-2-yl)-8-(6-methylpyridin-2-yl)pyrido[4,3-b]pyrazine-2-carboxamide] | 0.5 µM
